Reference: article PMC10829696, “Identification, expression profiles, and binding properties of chemosensory protein 18 in Plutella xylostella (Lepidoptera: Plutellidae)” (Journal of Insect Science, 2024)
pIC50, pKd, pKi: −log10 of the molar value. Read-outs that look alike come from different tables or passages of the source.

Columns and labels:
PxylCSP1 = system: PxylCSP1; design: method as in Liu et al. 2010; details: ref Liu et al. 2010; cited from earlier work
PxylCSP18 [1] = target: T1, PxylCSP18 (Plutella xylostella, UniProt A0ABQ7Q8H2, Q80P); experiment: Fluorescence competitive binding assays with 1-NPN as probe; details: for pKi: Ki = [IC50]/(1 + [1-NPN]/K1-NPN)
Method: The coding region of mature PxylCSP18 was cloned from the synthesized cDNA with the specific primers, in which an EcoR V and an Xho I restriction sites were introduced (Table 1). The amplified product was cloned into the pET-32a vector (Novagen, USA), followed by transformation into the competent E. coli BL21 (DE3) (Tiangen, China). The expression of PxylCSP18 in the bacteria was induced by 0.6 mM isopropyl-beta-D-thiogalactopyranoside (IPTG) overnight. Subsequently, the bacterial cells were collected through centrifugation and resuspended into phosphate-buffered saline (PBS) solution, then homogenized through sonication on ice using an ultrasonic processor (Sonics Vibra-Cell, USA). PxylCSP18 was purified from the soluble faction using a Ni^2+-NTA column (Roche, Switzerland) through a stepwise elution with 20, 50, 100, 150, and 500 mM imidazole in PBS. […] Finally, the PxylCSP18 was concentrated through ultrafiltration using a centrifugal device (3 kDa, Merck Millipore, USA), and the concentration was determined using the BCA Protein Assay Kit (Sangon, China). The purified recombinant PxylCSP18 was verified by peptide mass fingerprinting (Sangon Biotech, China).
Briefly, the emission spectra of the fluorescent probe, N-phenyl-1-naphthylamine (1-NPN, Sigma-Aldrich, USA), were recorded from 350 to 600 nm with 5 nm width of the emission slits and the excitation wavelength was 337 nm. […] Sixteen ligands, including 3 sex pheromone components ((Z)-11-hexadecenal, (Z)-11-hexadecenyl acetate, and (Z)-11-hexadecenyl alcolol) and some host volatiles (terpene, ketone, aldehyde, alcohol, and ester volatiles), were detected the affinities of PxylCSP18. […] The acquired data were calculated from the Scatchard plots for dissociation constants (Kd) and the curves, assuming PxylCSP18 was active completely and bound to the ligands in a 1:1 ratio at saturation.

P. xylostella = details: ref Song et al. 2022; cited from earlier work
PxylCSP18 [2] = target: T1, PxylCSP18; experiment: Titration of PxylCSP18 with fluorescent probe 1-NPN (Scatchard plot); assay type: binding; details: 1 µM protein in 20 mM Tris–HCl pH 7.4, 1-NPN 1 to 17 µM, Scatchard plots; read-out: dissociation constant (K1-NPN)
Method: The fluorescence competitive binding assays were performed as described previously ([Fu et al. 2020], [Hua et al. 2021]) with some modifications. Briefly, the emission spectra of the fluorescent probe, N-phenyl-1-naphthylamine (1-NPN, Sigma-Aldrich, USA), were recorded from 350 to 600 nm with 5 nm width of the emission slits and the excitation wavelength was 337 nm. To measure the affinity of 1-NPN to PxylCSP18, 1 µM protein in 20 mM Tris–HCl buffer (pH 7.4) was titrated with 1-NPN to final concentrations ranging from 1 to 17 µM in 1 cm light path quartz cuvette. After incubation for 3 min, the fluorescence intensity for each test was detected on an RF-5301 fluorescence spectrophotometer (Shimadzu, Japan). The average data of the recorded fluorescence intensity at the maximum emission wavelength were linearized using the Scatchard equation, and the dissociation constants for 1-NPN were then calculated ([Sideris et al. 1992], [Hua et al. 2021]). Sixteen ligands, including 3 sex pheromone components ((Z)-11-hexadecenal, (Z)-11-hexadecenyl acetate, and (Z)-11-hexadecenyl alcolol) and some host volatiles (terpene, ketone, aldehyde, alcohol, and ester volatiles), were detected the affinities of PxylCSP18. The final concentrations for each ligand ranging from 1 to 17 µM were added into the mixed solution of 1-NPN probe (1 µM) and PxylCSP18 (1 µM). […]

P. xylostella adults = experiment: Y-tube olfactometer bioassays after RNAi knockdown of PxylCSP18; assay type: in vivo, Plutella xylostella; details: day-2 unmated, 10 μg/μl in paraffin oil, dsCSP18 vs dsGFP
Method: The pupae the day before eclosion were collected and used for RNA interference. The pupae were anesthetized on ice and then injected with 1 μl of dsRNA (10 μg/μl) at the dorsal site of the abdomen using a Nanoject III micro-injector (Drummond Scientific, Broomall, PA) equipped with glass capillaries prepared using a P-97 micropipette puller (Sutter Instrument Co., Novato, CA). The antennae of day-2 unmated female and male adults were collected to detect the efficiency of RNAi-mediated knockdown of PxylCSP18 through […]. Three independent biological replicates were performed.
The responses of the day-2 unmated female and male adults to the volatile compounds were performed using a glass Y-tube olfactometer with a central glass tube (5 cm long × 2.5 cm ID) and 2 lateral glass arms (15 cm long × 2.5 cm ID) with a 75° inside angle as described previously ([Yan et al. 2023]), with some modifications. Before bioassays, all glasswares were cleaned and washed with absolute alcohol and dried at 100 °C for 5 min. A moistened and activated charcoal-filtered airflow (350 mL/min) was pumped into each source container using an atmospheric sampling instrument (QC-1S, Beijing Institute of Labor Protection Science, Beijing, China). The behavioral response of male and female adults of P. xylostella to trans-2-hexen-1-ol, isopropyl isothiocyanate, myrcene, linalool were then observed. Each component was diluted with paraffin oil to 10 μg/μl. For each chemical, an aliquot of 10 μl was applied to a strip of filter paper (0.5 × 5 cm) and placed in 1 source container. A filter paper strip loaded with the same volume of paraffin oil and placed in the second source container was used as a control. Each test male or female moth was released at the entrance of the central glass tube of the Y-tube olfactometer and observed for 5 min. […] The positions of the arms were reversed after 5 insects to avoid positional bias. The experimental device was cleaned after every 10 insects by washing it with absolute acetone and followed by heating at 100 °C for 5 min. Each concentration of compound stimulus was tested with 30 insects, which successfully made a “choice.” The choice index was calculated as the number of responses of moths to […] divided by the total number of test moths.

PxylCSP11 = system: PxylCSP11; design: method as in Fu et al. 2020; details: ref Fu et al. 2020; cited from earlier work
[3] = 1-NPN 1 µM, PxylCSP18 1 µM, ligand 1 to 17 µM, concentration of ligand halving the initial fluorescence, N.D. = no significant binding detected, read-out: IC50
[4] = 1-NPN 1 µM, PxylCSP18 1 µM, N.D. = no significant binding detected
[5] = 1-NPN 1 µM, PxylCSP18 1 µM, ligand 1 to 17 µM

T1 sequence (A0ABQ7Q8H2 entry or part of it Q80P): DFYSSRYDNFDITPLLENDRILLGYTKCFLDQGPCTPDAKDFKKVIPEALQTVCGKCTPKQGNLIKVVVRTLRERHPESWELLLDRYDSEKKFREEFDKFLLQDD

CC1(C)[C@H]2O[C@H]2[C@H]2[C@](C)(O)[C@@H]3CC[C@@H]4[C@@H](O)[C@@]3(C[C@@H](O)[C@@]21O)C[C@@]4(C)O [Rhodojaponin-III]
ability of PxylCSP1 to bind (PxylCSP1): remarkable ability to bind

CC1=CCC(C(C)C)=CC1 [γ-Terpinene]
pIC50 (PxylCSP18 [1]): 5.92
behavioural effect on P. xylostella (P. xylostella): repellent

c1ccc(Nc2cccc3ccccc23)cc1 [1-NPN, N-phenyl-1-naphthylamine]
pKd (PxylCSP18 [2]): 5.01

CCCCCCCCC=O [1-Nonanal]
pIC50 (PxylCSP18 [1]): 5.10

CC/C=C\CCOC(C)=O [(Z)-3-Hexenyl acetate]
pIC50 (PxylCSP18 [1]): 5.04

C=CC(C)(O)CCC=C(C)C (stereo not drawn) [Linalool]
pIC50 (PxylCSP18 [1]): 5.12
repellent effects to P. xylostella female adults after knocked down the expression of PxylCSP18 (P. xylostella adults): significantly weakened
repellent effects to P. xylostella male adults after knocked down the expression of PxylCSP18 (P. xylostella adults): decreased inconspicuously

CC(=O)/C=C/C1C(C)=CCCC1(C)C (stereo not drawn) [α-Ionone]
pIC50 (PxylCSP18 [1]): 5.38

CC(C)N=C=S [Isopropyl isothiocyanate]
pIC50 (PxylCSP18 [1]): 5.09
attractive effects to P. xylostella female adults after knocked down the expression of PxylCSP18 (P. xylostella adults): significantly weakened
attractive effects to P. xylostella male adults after knocked down the expression of PxylCSP18 (P. xylostella adults): significantly decreased

CC1=CC=C(C(C)C)CC1 [α-Terpinene]
pIC50 (PxylCSP18 [1]): 5.89
affinity of PxylCSP11 (PxylCSP11): good affinities

C=CC(O)CC (stereo not drawn) [1-Penten-3-ol]
pIC50 (PxylCSP18 [1]): 5.14

C=CCN=C=S [Allyl isothiocyanate]
pIC50 (PxylCSP18 [1]): 5.14
affinity of PxylCSP11 (PxylCSP11): good affinities

CC1=CC[C@@H](C(C)(C)O)CC1 [α-terpineol]
affinity of PxylCSP11 (PxylCSP11): good affinities

CCCC(C)CC(C)C (stereo not drawn) [2,4-dimethylheptane]
affinity of PxylCSP11 (PxylCSP11): good affinities

S=C=NCCc1ccccc1 [phenethyl isothiocyanate]
affinity of PxylCSP11 (PxylCSP11): good affinities

C=CC(=C)CCC=C(C)C [Myrcene]
pIC50 (PxylCSP18 [1]): 5.87
repellent effects to P. xylostella female adults after knocked down the expression of PxylCSP18 (P. xylostella adults): decreased inconspicuously
repellent effects to P. xylostella male adults after knocked down the expression of PxylCSP18 (P. xylostella adults): decreased inconspicuously
behavioural effect on P. xylostella (P. xylostella): repellent

CCCCCC=O [Caproldehyde]
pIC50 (PxylCSP18 [1]; [3]): 5.13
pKi (PxylCSP18 [1]; [4]): 5.22

CCCC/C=C\CCCCCCCCCC=O [(Z)-11-hexadecenal]
binding affinity of PxylCSP18 to ligand (in words) (PxylCSP18 [1]; [5]): no significant binding affinity

CCCCN=C=S [Buty1 isothiocyanate]
pIC50 (PxylCSP18 [1]): 5.05

CCC/C=C/CO [(E)-2-Hexenal-1-ol]
pIC50 (PxylCSP18 [1]; [3]): 5.12
pKi (PxylCSP18 [1]; [4]): 5.21
attractive effects to P. xylostella female adults after knocked down the expression of PxylCSP18 (P. xylostella adults): decreased inconspicuously
attractive effects to P. xylostella male adults after knocked down the expression of PxylCSP18 (P. xylostella adults): significantly decreased

C=C(C)[C@H]1CC=C(C)CC1 [Limonene]
pIC50 (PxylCSP18 [1]; [3]): 5.73
pKi (PxylCSP18 [1]; [4]): 5.83

CCCC/C=C\CCCCCCCCCCO [(Z)-11-hexadecenyl alcolol]
binding affinity of PxylCSP18 to ligand (in words) (PxylCSP18 [1]; [5]): no significant binding affinity

CCCC/C=C\CCCCCCCCCCOC(C)=O [(Z)-11-hexadecenyl acetate]
binding affinity of PxylCSP18 to ligand (in words) (PxylCSP18 [1]; [5]): no significant binding affinity
affinity of PxylCSP11 (PxylCSP11): good affinities

OCCc1ccccc1 [phenethyl alcohol]
affinity of PxylCSP11 (PxylCSP11): good affinities
